According to ChEMBL document CHEMBL4813981, “Synthesis and in vitro antibacterial activity of new aminothiazole-oximepiperidone cephalosporins” (2021):
Converted amounts (≈) assume the structure as drawn.

Assays:
Pseudomonas aeruginosa [1] = assay: Ratio of MBC to MIC for carbapenem-sensitive Pseudomonas aeruginosa 17-29 assessed as reduction in bacterial growth; assay type: functional
Escherichia coli [2] = assay: Antibacterial activity against ESBLs positive Carbapenem-sensitive Escherichia coli 17-8 assessed as reduction in bacterial growth in the presence of Avibactam; assay type: functional
Enterobacter cloacae [3] = assay: Ratio of MBC to MIC for Enterobacter cloacae 17-2 assessed as reduction in bacterial growth in the presence of Avibactam; assay type: functional
Escherichia coli [4] = assay: Antibacterial activity against ESBLs positive Carbapenem-sensitive Escherichia coli 17-21 assessed as reduction in bacterial growth in the presence of Avibactam; assay type: functional
Enterobacter cloacae [5] = assay: Antibacterial activity against Enterobacter cloacae 17-4 assessed as reduction in bacterial growth in the presence of Avibactam; assay type: functional
Pseudomonas aeruginosa [6] = assay: Ratio of MBC to MIC for carbapenem-sensitive Pseudomonas aeruginosa 17-10 assessed as reduction in bacterial growth; assay type: functional
Klebsiella pneumoniae [7] = assay: Ratio of MBC to MIC for Carbapenem- resistant Klebsiella pneumoniae KR 15-6 assessed as reduction in bacterial growth; assay type: functional
Escherichia coli [8] = assay: Antibacterial activity against ESBLs positive Carbapenem-sensitive Escherichia coli 17-5 assessed as reduction in bacterial growth in the presence of Avibactam; assay type: functional
Pseudomonas aeruginosa [9] = assay: Ratio of MBC to MIC for carbapenem-sensitive Pseudomonas aeruginosa 17-9 assessed as reduction in bacterial growth; assay type: functional
Klebsiella aerogenes [10] = assay: Ratio of MBC to MIC for Enterobacter aerogenes 15-3 assessed as reduction in bacterial growth in the presence of Avibactam; assay type: functional
Escherichia coli [11] = assay: Antibacterial activity against ESBLs negative Carbapenem-sensitive Escherichia coli 17-20 assessed as reduction in bacterial growth in the presence of Avibactam; assay type: functional
Escherichia coli [12] = assay: Antibacterial activity against ESBLs positive Carbapenem-sensitive Escherichia coli 17-3 assessed as reduction in bacterial growth in the presence of Avibactam; assay type: functional
Escherichia coli [13] = assay: Ratio of MBC to MIC for ESBLs positive Carbapenem-sensitive Escherichia coli 17-3 assessed as reduction in bacterial growth; assay type: functional
Klebsiella pneumoniae [14] = assay: Ratio of MBC to MIC for ESBLs negative Carbapenem-sensitive Klebsiella pneumoniae 17-17 assessed as reduction in bacterial growth; assay type: functional
Escherichia coli [15] = assay: Ratio of MBC to MIC for Escherichia coli NCTC 13353 assessed as reduction in bacterial growth in the presence of Avibactam; assay type: functional
Enterobacter cloacae [16] = assay: Ratio of MBC to MIC for Enterobacter cloacae 17-8 assessed as reduction in bacterial growth in the presence of Avibactam; assay type: functional
Klebsiella aerogenes [17] = assay: Antibacterial activity against Enterobacter aerogenes 17-3 assessed as reduction in bacterial growth
Pseudomonas aeruginosa [18] = assay: Ratio of MBC to MIC for carbapenem-sensitive Pseudomonas aeruginosa 17-26 assessed as reduction in bacterial growth in the presence of Avibactam; assay type: functional
Pseudomonas aeruginosa [19] = assay: Ratio of MBC to MIC for carbapenem-sensitive Pseudomonas aeruginosa 17-7 assessed as reduction in bacterial growth; assay type: functional
Pseudomonas aeruginosa [20] = assay: Ratio of MBC to MIC for carbapenem-sensitive Pseudomonas aeruginosa 17-9 assessed as reduction in bacterial growth in the presence of Avibactam; assay type: functional
Pseudomonas aeruginosa [21] = assay: Bactericidal activity against Carbapenem- resistant Pseudomonas aeruginosa 17-1 assessed as reduction in bacterial growth; assay type: functional
Pseudomonas aeruginosa [22] = assay: Ratio of MBC to MIC for carbapenem-sensitive Pseudomonas aeruginosa 17-29 assessed as reduction in bacterial growth in the presence of Avibactam; assay type: functional
Escherichia coli [23] = assay: Ratio of MBC to MIC for Escherichia coli ATCC 25922 assessed as reduction in bacterial growth in the presence of Avibactam; assay type: functional
Enterobacter cloacae [24] = assay: Ratio of MBC to MIC for Enterobacter cloacae 17-3 assessed as reduction in bacterial growth in the presence of Avibactam; assay type: functional
Escherichia coli [25] = assay: Antibacterial activity against ESBLs positive Carbapenem-sensitive Escherichia coli 17-10 assessed as reduction in bacterial growth
Enterobacter cloacae [26] = assay: Antibacterial activity against Enterobacter cloacae 17-3 assessed as reduction in bacterial growth in the presence of Avibactam; assay type: functional
Escherichia coli [27] = assay: Ratio of MBC to MIC for ESBLs negative Carbapenem-sensitive Escherichia coli 17-9 assessed as reduction in bacterial growth; assay type: functional
Escherichia coli [28] = assay: Antibacterial activity against ESBLs negative Carbapenem-sensitive Escherichia coli 17-9 assessed as reduction in bacterial growth in the presence of Avibactam; assay type: functional
Klebsiella pneumoniae [29] = assay: Ratio of MBC to MIC for ESBLs negative Carbapenem-sensitive Klebsiella pneumoniae 17-16 assessed as reduction in bacterial growth in the presence of Avibactam; assay type: functional
Klebsiella pneumoniae [30] = assay: Antibacterial activity against ESBLs positive Carbapenem-sensitive Klebsiella pneumoniae 17-11 assessed as reduction in bacterial growth in the presence of Avibactam; assay type: functional
Enterobacter cloacae [31] = assay: Antibacterial activity against Enterobacter cloacae 17-8 assessed as reduction in bacterial growth
Klebsiella pneumoniae [32] = assay: Ratio of MBC to MIC for Carbapenem-resistant Klebsiella pneumoniae KR 15-8 assessed as reduction in bacterial growth in the presence of Avibactam; assay type: functional
Enterobacter cloacae [33] = assay: Ratio of MBC to MIC for Enterobacter cloacae 17-10 assessed as reduction in bacterial growth; assay type: functional
Klebsiella aerogenes [34] = assay: Ratio of MBC to MIC for Enterobacter aerogenes 15-4 assessed as reduction in bacterial growth in the presence of Avibactam; assay type: functional
Escherichia coli [35] = assay: Ratio of MBC to MIC for ESBLs positive Carbapenem-sensitive Escherichia coli 17-18 assessed as reduction in bacterial growth; assay type: functional
Klebsiella pneumoniae [36] = assay: Ratio of MBC to MIC for ESBLs negative Carbapenem-sensitive Klebsiella pneumoniae 17-17 assessed as reduction in bacterial growth in the presence of Avibactam; assay type: functional
Acinetobacter baumannii [37] = assay: Ratio of MBC to MIC for Acinetobacter baumannii NCTC 13304 assessed as reduction in bacterial growth in the presence of Avibactam; assay type: functional
Escherichia coli [38] = assay: Ratio of MBC to MIC for ESBLs positive Carbapenem-sensitive Escherichia coli 17-10 assessed as reduction in bacterial growth; assay type: functional
Klebsiella pneumoniae [39] = assay: Ratio of MBC to MIC for Klebsiella pneumoniae ATCC BAA-1705 assessed as reduction in bacterial growth in the presence of Avibactam; assay type: functional
Acinetobacter baumannii [40] = assay: Antibacterial activity against Carbapenem- resistant Acinetobacter baumannii 17-3 assessed as reduction in bacterial growth
Enterobacter cloacae [41] = assay: Ratio of MBC to MIC for Enterobacter cloacae 17-3 assessed as reduction in bacterial growth; assay type: functional
Klebsiella pneumoniae [42] = assay: Antibacterial activity against ESBLs negative Carbapenem-sensitive Klebsiella pneumoniae 17-19 assessed as reduction in bacterial growth in the presence of Avibactam; assay type: functional
Klebsiella pneumoniae [43] = assay: Antibacterial activity against ESBLs negative Carbapenem-sensitive Klebsiella pneumoniae 15-2 assessed as reduction in bacterial growth in the presence of Avibactam; assay type: functional
Acinetobacter baumannii [44] = assay: Bactericidal activity against Carbapenem- resistant Acinetobacter baumannii 17-11 assessed as reduction in bacterial growth; assay type: functional
Acinetobacter baumannii [45] = assay: Bactericidal activity against Carbapenem- resistant Acinetobacter baumannii 17-3 assessed as reduction in bacterial growth; assay type: functional

Nc1nc(/C(=N/OCc2cc(=O)c(O)cn2O)C(=O)N[C@@H]2C(=O)N3C(C(=O)O)=CCS[C@H]23)cs1
Ratio (Pseudomonas aeruginosa [1]): 4
MIC (Escherichia coli [2]): 0.5 µg/mL
Ratio (Enterobacter cloacae [3]): 8
MIC (Escherichia coli [4]): 0.5 µg/mL
MIC (Enterobacter cloacae [5]): 0.5 µg/mL
Ratio (Pseudomonas aeruginosa [6]): 4
Ratio (Klebsiella pneumoniae [7]): 4
MIC (Escherichia coli [8]): 1 µg/mL
Ratio (Pseudomonas aeruginosa [9]): 4
Ratio (Klebsiella aerogenes [10]): 1
MIC (Escherichia coli [11]): 0.06 µg/mL
MIC (Escherichia coli [12]): 0.125 µg/mL
Ratio (Escherichia coli [13]): 1
Ratio (Klebsiella pneumoniae [14]): 2
Ratio (Escherichia coli [15]): 1
Ratio (Enterobacter cloacae [16]): 1
MIC (Klebsiella aerogenes [17]): 2 µg/mL (≈ 3.93 µM)
Ratio (Pseudomonas aeruginosa [18]): 4
Ratio (Pseudomonas aeruginosa [19]): 4
Ratio (Pseudomonas aeruginosa [20]): 2
MBC (Pseudomonas aeruginosa [21]): 64 µg/mL (≈ 126 µM)
Ratio (Pseudomonas aeruginosa [22]): 8
Ratio (Escherichia coli [23]): 2
Ratio (Enterobacter cloacae [24]): 4
MIC (Escherichia coli [25]): 4 µg/mL (≈ 7.87 µM)
MIC (Enterobacter cloacae [26]): 2 µg/mL
Ratio (Escherichia coli [27]): 4
MIC (Escherichia coli [28]): 0.5 µg/mL
Ratio (Klebsiella pneumoniae [29]): 1
MIC (Klebsiella pneumoniae [30]): 4 µg/mL
MIC (Enterobacter cloacae [31]): 16 µg/mL (≈ 31.5 µM)
Ratio (Klebsiella pneumoniae [32]): 4
Ratio (Enterobacter cloacae [33]): >8
Ratio (Klebsiella aerogenes [34]): 2
Ratio (Escherichia coli [35]): 4
Ratio (Klebsiella pneumoniae [36]): 8
Ratio (Acinetobacter baumannii [37]): 1
Ratio (Escherichia coli [38]): 1
Ratio (Klebsiella pneumoniae [39]): 1
MIC (Acinetobacter baumannii [40]): > 64 µg/mL
Ratio (Enterobacter cloacae [41]): 1
MIC (Klebsiella pneumoniae [42]): ≤ 0.03 µg/mL
MIC (Klebsiella pneumoniae [43]): ≤ 0.03 µg/mL

CC(C)(O/N=C(\C(=O)N[C@@H]1C(=O)N2C(C(=O)[O-])=C(C[n+]3ccccc3)CS[C@H]12)c1csc(N)n1)C(=O)O [CEFTAZIDIME]
MBC (Acinetobacter baumannii [44]): > 64 µg/mL
MBC (Acinetobacter baumannii [45]): 64 µg/mL (≈ 117 µM)
